Usually IC50 stands for the point on the concentration scale where inhibition reaches its midpoint. Lower therefore signals greater potency in that assay.

The values below come from patent publication US10815208B2, “Method for preparing 2-hydroxyl-4-(2, 3-disubstituted benzyloxy)-5-substituted benzaldehyde derivative” (Institute of Materia Medica, Chinese Academy of Medical …, priority 2016, dated 2020).

One assay has as its target PD-1/PD-L1 (Homo sapiens (Human), UniProt Q9NZQ7). Put plainly: Cisbio HTRF binding assay, PD-1/PD-L1 small molecule inhibitor screening. As to conditions: for IC50: HTRF, PD-1 (HIS tag) / PD-L1 (hFc tag), 8-10 concentrations. An excerpt:
In vitro activity evaluation: Cisbio HTRF binding assay kit was applied for the detection method of in vitro enzymology level.
Screening Principles and Methods of PD-1/PD-L1 Small Molecule Inhibitors
1) Principle: PD-1 protein is with HIS tag, and PD-1 ligand PD-L1 is with hFc tag. Eu labeled anti-hFc antibody and XL665 labeled anti-HIS antibody are combined with the above two label proteins respectively. After laser excitation, energy can be transferred from donor Eu to receptor XL665, allowing XL665 to glow.
2) Experimental method: Reagents should be dispensed in the following order. For 384-well white ELISA plate, 2 μl of diluent or target compound diluted with diluent was added to each well, and then 4 μl of PD-1 protein and 4 μl of PD-L1 protein were added per well, incubated for 15 min at the room temperature; and 10 μl of anti-Tag1-Eu3^+ and anti-Tag2-XL665 was added per well and incubated for 1 h at the room temperature and the fluorescence signals at 665 nm and 620 nm were measured. HTRF rate=(665 nm/620 nm)*10^4. 8-10 concentrations were detected for each compound and IC50 was calculated by Graphpad software.

The test system of assay [1] is advanced triple-negative breast cancer. The following applies: in vivo; cited from earlier work.
For assay [2], the system named is advanced Hodgkin's lymphoma (HL). As to conditions: advanced HL patients with no treatment response to any of the approved drugs; cited from earlier work.
The subject of assay [3] is pleural mesothelioma (PM). The following applies: 25 patients with pleural mesothelioma (PM); cited from earlier work.

Chain of PD-1/PD-L1 (Q9NZQ7 19-238): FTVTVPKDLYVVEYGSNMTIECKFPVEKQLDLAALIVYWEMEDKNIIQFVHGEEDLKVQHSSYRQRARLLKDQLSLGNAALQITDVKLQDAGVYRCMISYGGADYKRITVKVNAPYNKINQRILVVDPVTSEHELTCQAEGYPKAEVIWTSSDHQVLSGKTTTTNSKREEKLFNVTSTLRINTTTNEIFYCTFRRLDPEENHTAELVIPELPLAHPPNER

In the case of `CC(=O)NCCNCc1cc(Cl)c(OCc2cccc(-c3ccccc3)c2Br)cc1OCc1cccc(C#N)c1` [Example 2, N-acetylaminoethyl-4-(2-bromo-3-phenylbenzyloxy)-2-(3-cyanobenzyloxy)-5-chlorobenzylamine], on PD-1/PD-L1, the “inhibition of the interaction between PD-1 and PD-L1” value is on record as “significantly inhibit”; the IC50 came out at 62.3 nM.
Regarding “(R)—N-[2-(5-cyanopyridine-3-methyleneoxy)-4-(2-methyl-3-(2,3-dihydrobenzo[b][1,4]dioxin-6-yl)benzyloxy)-5-chlorobenzyl]-3-(pyridin-3-yl)alanine [Example 6]”, at PD-1/PD-L1, the “inhibition of the interaction between PD-1 and PD-L1” value is given as “significantly inhibit”; the IC50 was found to be 35 nM.
Regarding “MPDL3280A: Roche's PD-L1 monoclonal antibody”, in assay [1], the “effect in advanced triple-negative breast cancer” value is “long-lasting effect”.
Consider nivolumab [Opdvio], for which the treatment response result in assay [2] is “complete remission”.
In the case of pembrolizumab [Keytruda], in assay [3], the disease control rate is given as 76% and the “overall response rate (ORR)” value is 28%. In addition, the treatment response entry in assay [2] is listed as “complete remission”.
